Assay results reported in ChEMBL document CHEMBL3870317, “FtsZ inhibition and redox modulation with one chemical scaffold: Potential use of dihydroquinolines against mycobacteria” (Eur J Med Chem, 2016).
In brackets after ≈: the same amount, converted by molar mass. Activity calls are given as the source filed them. The rule behind the calls is not given here.

Columns and labels:
[1] = (§1) Inhibition of recombinant Mycobacterium tuberculosis FtsZ polymerization expressed in Escherichia coli assessed as inhibition of protofilament formation by measuring intensity of light scattering in presence of GTP by fluorescence spectrophotometry method
[2] = (§2) Inhibition of recombinant Mycobacterium tuberculosis FtsZ GTPase activity expressed in Escherichia coli assessed as inorganic phosphate release measured after 15 mins in presence of GTP using malachite green dye by fluorescence spectrophotometry
[3] = system: Mycolicibacterium smegmatis; assay: Antimycobacterial activity against Mycobacterium smegmatis MC2 155 measured after 48 hrs by resazurin dye-based MABA method; type: functional; conditions: str. MC2 155, 48 h
[4] = system: Mycobacterium tuberculosis; assay: Inhibition of recombinant Mycobacterium tuberculosis FtsZ GTPase activity expressed in Escherichia coli assessed as inorganic phosphate release at 50 uM measured after 15 mins in presence of GTP using malachite green dye by fluorescence spectrophotometry relative to control
[5] = system: Mycobacterium tuberculosis; assay: as §1
[6] = system: Mycobacterium tuberculosis; assay: as §2
[7] = system: Mycolicibacterium smegmatis MC2 155; assay: Inhibition of recombinant Mycobacterium smegmatis MC2 155 FtsZ assessed as increase in cell length at 50 uM measured after 2 hrs by phase contrast microscopy relative to control
[8] = target: T1, Cell division protein FtsZ (Bacillus subtilis (strain 168)) (UniProt P17865); assay: Inhibition of recombinant Bacillus subtilis 168 FtsZ assessed as increase in cell length at 50 uM measured after 2 hrs by phase contrast microscopy relative to control; conditions: Bacillus subtilis subsp. subtilis str. 168
T1 sequence (whole entry): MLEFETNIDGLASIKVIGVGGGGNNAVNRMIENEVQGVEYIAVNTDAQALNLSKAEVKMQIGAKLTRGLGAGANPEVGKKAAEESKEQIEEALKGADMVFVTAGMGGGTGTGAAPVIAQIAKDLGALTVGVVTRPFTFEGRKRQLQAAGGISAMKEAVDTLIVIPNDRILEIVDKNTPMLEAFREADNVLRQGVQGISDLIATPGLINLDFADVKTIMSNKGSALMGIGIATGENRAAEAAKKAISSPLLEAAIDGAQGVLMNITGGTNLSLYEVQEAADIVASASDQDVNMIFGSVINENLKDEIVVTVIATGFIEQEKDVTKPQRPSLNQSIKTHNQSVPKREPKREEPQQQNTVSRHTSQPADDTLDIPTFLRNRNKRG

[9] = system: Mycobacterium tuberculosis; assay: Inhibition of recombinant Mycobacterium tuberculosis FtsZ expressed in Escherichia coli assessed as inhibition of protofilament formation by measuring intensity of light scattering at 400 nM up to 300 sec in presence of GTP by fluorescence spectrophotometry
[10] = system: Mycobacterium tuberculosis; assay: Inhibition of Mycobacterium tuberculosis FtsZ polymerization at 50 uM measured after 1 hr by sodium tungstate staining based transmission electron microscopic method
[11] = target: T1, Cell division protein FtsZ (Bacillus subtilis (strain 168)); assay: Binding affinity to Bacillus subtilis 168 FtsZ assessed as effect on Z-ring assembly at 100 uM by FITC-staining based immunofluorescence microscopic method; conditions: Bacillus subtilis subsp. subtilis str. 168
[12] = system: Mycobacterium tuberculosis; assay: Displacement of ANS from recombinant Mycobacterium tuberculosis FtsZ expressed in Escherichia coli assessed as red shift at 20 to 140 uM after 30 mins by fluorescence analysis
[13] = Displacement of ANS from recombinant Mycobacterium tuberculosis FtsZ expressed in Escherichia coli by double reciprocal plot analysis
Bacillus subtilis = assay: Induction of ROS generation in Bacillus subtillis 168 assessed as DCF release at 25 to 50 uM measured after 1 hr by DCFH-DA based fluorescence microscopy; type: functional; conditions: subsp. subtilis str. 168
[14] = system: Mycolicibacterium smegmatis; assay: Induction of ROS generation in Mycobacterium smegmatis MC2 155 assessed as release of DCF at 25 to 50 uM measured after 1 hr by DCFH-DA based fluorescence spectrophotometry; type: functional; conditions: str. MC2 155
[15] = system: Mycobacterium tuberculosis; assay: Inhibition of recombinant Mycobacterium tuberculosis FtsZ expressed in Escherichia coli assessed as inhibition of protofilament formation by measuring intensity of light scattering at 400 nM after 1000 sec in presence of GTP by fluorescence spectrophotometry

Row | SMILES | MIC [3] | IC50 ([1]; read-out: IC50) | IC50 ([2]; read-out: IC50) | also measured
1 | CCN1CC(C(=O)OC)=Cc2cc([N+](=O)[O-])ccc21 |  |  |  | IC50 [1]: Nd(Insoluble); IC50 [2]: Nd(Insoluble)
2 | CO[C@H]1/C=C/O[C@@]2(C)Oc3c(C)c(O)c4c(O)c(c(/C=N/N5CCN(C)CC5)c(O)c4c3C2=O)NC(=O)/C(C)=C\C=C\[C@H](C)[C@H](O)[C@@H](C)[C@@H](O)[C@@H](C)[C@H](OC(C)=O)[C@@H]1C [RIFAMPIN] | 1.75 µg/mL (≈ 2.13 µM) |  |  | 
3 | COC(=O)C1=Cc2cc([N+](=O)[O-])ccc2N(Cc2ccccc2)C1 | 31.5 µg/mL (≈ 97.1 µM) | 184 µM | 197 µM | 
4 | COc1ccc2cc3[n+](cc2c1OC)CCc1cc2c(cc1-3)OCO2 |  |  |  | inhibition [4]: 79 to 80%
5 | COC(=O)C1=Cc2cc([N+](=O)[O-])ccc2N(Cc2ccc3c(c2)OCO3)C1 | 0.95 µg/mL (≈ 2.58 µM) | 77.3 µM | 78.5 µM | inhibition [5]: Dose-dependent effect; inhibition [6]: Dose-dependent effect
6 | COC(=O)C1=Cc2cc([N+](=O)[O-])ccc2N(CCO)C1 | 3.9 µg/mL (≈ 14 µM) | 40.1 µM | 41.5 µM | 
7 | CN[C@@H]1[C@H](O[C@H]2[C@H](O[C@H]3[C@H](O)[C@@H](O)[C@H](N=C(N)N)[C@@H](O)[C@@H]3N=C(N)N)O[C@@H](C)[C@]2(O)C=O)O[C@@H](CO)[C@H](O)[C@H]1O [STREPTOMYCIN] | 3 µg/mL (≈ 5.16 µM) |  |  | 
8 | O=C(O)C1=Cc2cc([N+](=O)[O-])ccc2N(Cc2ccccc2)C1 | 31.2 µg/mL (≈ 101 µM) | 95 µM | 86.6 µM | 
9 | CCN1CC(C(=O)OC)=Cc2cc(F)c(F)cc21 | 0.9 µg/mL (≈ 3.55 µM) | 210 µM | 196 µM | inhibition [5]: Dose-dependent effect; inhibition [6]: Dose-dependent effect
10 | COCCCN1CC(C(=O)OC)=Cc2cc([N+](=O)[O-])ccc21 | 1.95 µg/mL (≈ 6.37 µM) | 88.6 µM | 89.3 µM | inhibition [5]: Dose-dependent effect; inhibition [6]: Dose-dependent effect
11 | CC(=O)C1=Cc2cc([N+](=O)[O-])ccc2N(Cc2ccccc2)C1 | 7.5 µg/mL (≈ 24.3 µM) | > 200 µM | > 200 µM | 
12 | CCN(CC)CCN1CC(C(=O)OC)=Cc2cc([N+](=O)[O-])ccc21 | 7.5 µg/mL (≈ 22.5 µM) | 34 µM | 38.3 µM | inhibition [5]: Dose-dependent effect; inhibition [6]: Dose-dependent effect
13 | COC(=O)C1=Cc2cc3ccccc3nc2N([C@@H](CO)C(=O)OC)C1 | 15 µg/mL (≈ 43.8 µM) | 61.5 µM | 66 µM | 
14 | CC(C)(C)OC(=O)C1=Cc2cc([N+](=O)[O-])ccc2N(Cc2ccccc2)C1 | 7.5 µg/mL (≈ 20.5 µM) | > 200 µM | > 200 µM | 
15 | CCCCN1CC(C(=O)OC)=Cc2cc([N+](=O)[O-])ccc21 | 7.5 µg/mL (≈ 25.8 µM) | > 200 µM | > 200 µM | 
16 | COC(=O)C1=Cc2cc([N+](=O)[O-])ccc2N([C@@H](CO)C(=O)OC)C1 | 7.5 µg/mL (≈ 22.3 µM) | 33.4 µM | 39 µM | fold change (FC) [7]: 4; fold change (FC) [8]: 6; inhibition [9]: Active; inhibition [5]: Dose-dependent effect; inhibition [6]: Dose-dependent effect; inhibition [10]: Active; Activity [11]: Active; inhibition [12]: Active; Kd [13]: 8.6 µM; Activity (Bacillus subtilis): Active; Activity [14]: Active; inhibition [15]: Dose-dependent effect
17 | COC(=O)C1=Cc2ccccc2N(S(=O)(=O)c2ccc(C)cc2)C1 |  |  |  | IC50 [1]: Nd(Insoluble); IC50 [2]: Nd(Insoluble)
18 | COC(=O)C1=Cc2cc([N+](=O)[O-])ccc2N([C@@H](C)C(=O)OC)C1 |  |  |  | IC50 [1]: Nd(Insoluble); IC50 [2]: Nd(Insoluble)
19 | C[C@H](c1ccccc1)N1CC(C(=O)O)=Cc2cc([N+](=O)[O-])ccc21 | 7.5 µg/mL (≈ 23.1 µM) | 40.9 µM | 25.3 µM | inhibition [5]: Dose-dependent effect; inhibition [6]: Dose-dependent effect
20 | COC(=O)C1=Cc2cc([N+](=O)[O-])ccc2N(Cc2ccccn2)C1 | 62.5 µg/mL (≈ 192 µM) | 194 µM | 186 µM | 
21 | COC(=O)C1=Cc2cc([N+](=O)[O-])c(Cl)cc2N([C@@H](C)c2ccccc2)C1 | 15 µg/mL (≈ 40.2 µM) | 41.4 µM | 40 µM | inhibition [10]: Active
22 | CC(C)c1c(O)ccc2c1CC[C@H]1C(C)(C)CCC[C@]21C |  |  |  | inhibition [4]: 73 to 74%
